Activity calls are given as the source filed them. No cut-off for these calls is given here.

For one assay, the system named is MCF7. The experiment in a line: Cytotoxicity against human MCF7 cells by MTT assay. It counts as functional, cell-based. Background: Tetrazolium assays rely on reduction of a dye to a coloured formazan, in cell work by metabolically active cells.
Assay [1] in a line: Cytotoxicity against human Hep3B cells by MTT assay. Format: functional, cell-based, Hep 3B2.
In a further assay the test system is HT-29. The experiment in a line: Cytotoxicity against human HT29 cells by MTT assay. It counts as functional, cell-based.
The test system of assay [2] is A549. The experiment in a line: Cytotoxicity against human A549 cells by MTT assay. Format: functional, cell-based.
The test system of assay [3] is RAW264.7. The experiment in a line: Antiinflammatory activity against mouse RAW264.7 cells assessed as inhibition of LPS-induced nitric oxide production. Format: functional, cell-based.
Assay [4] in a line: Antioxidant activity assessed as inhibition of superoxide radical-induced DNA damage of pBR322 at 300 uM after 20 mins by gel electrophoresis. It counts as functional.
Assay [5] concerns the target Xanthine dehydrogenase/oxidase (Homo sapiens, UniProt P47989). The experiment in a line: Inhibition of xanthine oxidase.
Assay [6] concerns Radical scavenging activity. The experiment in a line: Antioxidant activity assessed as DPPH radical scavenging activity. Format: functional. (In general: DPPH is a stable violet radical that fades when it is reduced.)
In assay [7] the test system is A549. The experiment in a line: Cell cycle arrest in human A549 cells assessed as accumulation at G1 phase at 0.03 uM after 24 hrs by flow cytometry. It counts as functional. Background: Flow cytometry measures light scatter and fluorescence of single cells or particles in a stream.
The test system of assay [8] is A549. The experiment in a line: Cell cycle arrest in human A549 cells assessed as accumulation at S phase at 0.03 uM after 24 hrs by flow cytometry. Format: functional.
In assay [9] the test system is A549. The experiment in a line: Cell cycle arrest in human A549 cells assessed as accumulation at G2/M phase at 0.03 uM after 24 hrs by flow cytometry. It counts as functional.
Assay [10] has as its system A549. The experiment in a line: Cell cycle arrest in human A549 cells assessed as accumulation at G1 phase at 0.1 uM after 24 hrs by flow cytometry. It counts as functional.
For assay [11], the system named is A549. The experiment in a line: Cell cycle arrest in human A549 cells assessed as accumulation at S phase at 0.1 uM after 24 hrs by flow cytometry. It counts as functional.
Assay [12] deals with A549. The experiment in a line: Cell cycle arrest in human A549 cells assessed as accumulation at G2/M phase at 0.1 uM after 24 hrs by flow cytometry. Format: functional.
Assay [13] relates to A549. The experiment in a line: Cell cycle arrest in human A549 cells assessed as accumulation at G1 phase at 10 uM after 24 hrs by flow cytometry. Format: functional.
Assay [14] has as its system A549. The experiment in a line: Cell cycle arrest in human A549 cells assessed as accumulation at S phase at 10 uM after 24 hrs by flow cytometry. Format: functional.
The test system of assay [15] is A549. The experiment in a line: Cell cycle arrest in human A549 cells assessed as accumulation at G2/M phase at 10 uM after 24 hrs by flow cytometry. It counts as functional.
Assay [16] in a line: Inhibition of tubulin polymerization.
For assay [17], the system named is RAW264.7. The experiment in a line: Antiinflammatory activity against mouse RAW264.7 cells assessed as inhibition of LPS-induced TNFalpha formation. It counts as functional, cell-based.

Xanthine dehydrogenase/oxidase, sequence (P47989 whole entry): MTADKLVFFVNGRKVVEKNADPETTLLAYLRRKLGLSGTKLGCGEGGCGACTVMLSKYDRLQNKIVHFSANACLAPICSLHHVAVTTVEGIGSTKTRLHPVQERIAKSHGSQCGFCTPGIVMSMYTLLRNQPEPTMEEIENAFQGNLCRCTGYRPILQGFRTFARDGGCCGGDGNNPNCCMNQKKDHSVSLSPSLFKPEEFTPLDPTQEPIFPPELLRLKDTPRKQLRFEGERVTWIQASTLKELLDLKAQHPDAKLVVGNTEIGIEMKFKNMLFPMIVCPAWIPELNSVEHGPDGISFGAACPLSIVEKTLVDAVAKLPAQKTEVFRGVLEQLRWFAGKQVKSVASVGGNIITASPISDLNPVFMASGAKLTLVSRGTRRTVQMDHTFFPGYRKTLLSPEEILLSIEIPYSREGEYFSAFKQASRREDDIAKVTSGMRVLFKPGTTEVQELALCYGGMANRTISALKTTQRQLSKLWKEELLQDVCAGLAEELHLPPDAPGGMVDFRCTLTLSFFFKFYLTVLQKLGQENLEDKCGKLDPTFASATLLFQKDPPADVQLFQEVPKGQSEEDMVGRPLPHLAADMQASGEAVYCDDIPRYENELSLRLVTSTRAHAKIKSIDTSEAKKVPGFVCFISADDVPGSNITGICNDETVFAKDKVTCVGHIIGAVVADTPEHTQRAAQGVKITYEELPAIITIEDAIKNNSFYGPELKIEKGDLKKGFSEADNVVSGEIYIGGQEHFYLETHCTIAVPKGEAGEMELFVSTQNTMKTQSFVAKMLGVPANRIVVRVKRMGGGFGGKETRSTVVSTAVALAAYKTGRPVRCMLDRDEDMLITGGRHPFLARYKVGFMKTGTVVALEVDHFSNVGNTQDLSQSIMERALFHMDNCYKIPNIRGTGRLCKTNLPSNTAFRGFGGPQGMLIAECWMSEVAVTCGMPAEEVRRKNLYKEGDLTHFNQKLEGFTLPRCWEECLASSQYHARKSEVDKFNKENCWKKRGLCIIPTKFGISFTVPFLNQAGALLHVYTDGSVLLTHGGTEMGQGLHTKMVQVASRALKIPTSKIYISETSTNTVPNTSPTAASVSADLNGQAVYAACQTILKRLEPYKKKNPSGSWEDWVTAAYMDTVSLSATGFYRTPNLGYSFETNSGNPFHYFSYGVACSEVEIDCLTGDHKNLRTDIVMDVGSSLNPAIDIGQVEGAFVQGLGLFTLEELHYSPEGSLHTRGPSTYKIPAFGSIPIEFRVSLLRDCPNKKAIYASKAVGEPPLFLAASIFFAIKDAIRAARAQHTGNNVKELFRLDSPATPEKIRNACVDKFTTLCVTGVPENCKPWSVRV

On to `CCCOc1ccc(O)c(C(=O)/C=C/c2ccc(C)s2)c1`, for which the 50% inhibitory concentration (IC50) in the assay on MCF7 was 21.5 µM; in assay [1] it was 23.2 µM; in the assay with HT-29 it was 126 µM.

For `CCOc1ccc(O)c(C(=O)/C=C/c2ccc(C)s2)c1`, the IC50 was 23.2 µM in the assay with MCF7, 90.2 µM in assay [1] and 43.4 µM in the assay on HT-29.

As for `COc1ccc(O)c(C(=O)/C=C/c2ccc(C)s2)c1`, the values for the 50% inhibitory concentration (IC50) (in the assay with MCF7; in assay [1]; with HT-29) were 34.6 µM, 87.5 µM and 71.5 µM, respectively.

As for `CCOc1ccc(OCC)c(C(=O)/C=C/c2ccc(C)s2)c1`, the 50% inhibitory concentration (IC50) amounted to 1.4 µM with MCF7; 4.4 µM in the assay with A549 [2]; 16.5 µM in the assay with RAW264.7 [3]; 21.3 µM in assay [5]; 31.6 µM in [1]; 3.2 µM in the assay on HT-29. The outcome in assay [4] was Active. Besides, the outcome in assay [6] was inactive.

For `Cc1ccc(/C=C/C(=O)c2cc(OC(C)C)ccc2O)s1`, the IC50 in the assay with MCF7 is 15.5 µM; in [1] it was 81.7 µM; in the assay with HT-29, 30.2 µM.

The compound `Cc1ccc(/C=C/C(=O)c2ccc(O)c(O)c2O)s1` displayed a half-inhibitory concentration (IC50) in the assay on HT-29 of 35.9 µM.

Turning to `CCCCOc1ccc(O)c(C(=O)/C=C/c2ccc(C)s2)c1`, the half-inhibitory concentration (IC50) with MCF7 was determined as 38.9 µM; in assay [1], 91.7 µM; with HT-29, 71.4 µM.

In the case of `CCCCCOc1ccc(O)c(C(=O)/C=C/c2ccc(C)s2)c1`, the figures for the concentration for half-maximal inhibition (IC50) (in the assay with MCF7; in [1]; in the assay on HT-29) were 48.4 µM, 112 µM and 86.9 µM, respectively.

On to `COc1ccc(C(=O)/C=C/c2ccc(C)s2)c(O)c1O`, for which the IC50 was 20.7 µM with MCF7, 10.7 µM in assay [1] and 53.4 µM in the assay on HT-29.

As for `CCCOc1ccc(OC)cc1C(=O)/C=C/c1ccc(C)s1`, the IC50 came to 0.8 µM in the assay on MCF7, 7 µM in assay [1] and 86.6 µM in the assay with HT-29.

Consider `CCCCOc1ccc(OC)cc1C(=O)/C=C/c1ccc(C)s1`, for which the IC50 with MCF7 came out at 13.9 µM; in the assay with RAW264.7 [3], 28 µM; in assay [1], 10.7 µM; with HT-29, 61.1 µM.

In the case of `Cc1ccc(/C=C/C(=O)c2cc(OCC(C)C)ccc2O)s1`, the figures for the concentration for half-maximal inhibition (IC50) (in the assay on MCF7; in assay [1]; in the assay on HT-29) were 13 µM, 54.4 µM and 30.7 µM, respectively.

Regarding `CCOc1ccc(OC)cc1C(=O)/C=C/c1ccc(C)s1`, the half-inhibitory concentration (IC50) turned out to be 2.3 µM in the assay on MCF7; 6.3 µM in the assay on A549 [2]; 0.4 µM in the assay on RAW264.7 [17]; 131 µM in [5]; 0.2 µM in assay [1]; 0.1 µM in the assay on HT-29. Also, the Activity was determined as 70.207% in the assay with A549 [7]; 27.69% with A549 [8]; 2.104% with A549 [9]; 65.919% in the assay with A549 [10]; 28.384% with A549 [11]; 5.698% with A549 [12]. In addition, the Activity in the assay on A549 [13] is on record as 64.102%; with A549 [14], 24.271%; in the assay with A549 [15], 11.627%. In addition, the outcome in assay [16] and in assay [4] was Active. Further, the outcome in assay [6] was inactive.

In assay [1], `O=c1[nH]cc(F)c(=O)[nH]1` [FLUOROURACIL] came in with an IC50 of 0.6 µM.

The IC50 is the concentration that gives 50% inhibition.

For the origin of these results see ChEMBL document CHEMBL1155829, “Synthesis and cytotoxic, anti-inflammatory, and anti-oxidant activities of 2',5'-dialkoxylchalcones as cancer chemopreventive agents” (Bioorg Med Chem, 2008).
